Data as given in PubChem BioAssay AID179 (DTP/NCI, 2004).
Values joined by “and” are separate entries in the source; they are usually repeats but may differ in a detail not shown here. Equal entries are not always repeated. Active and inactive are the calls of the source.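 How the source made its calls: active means compounds giving half or more protection of infected cells from virus-caused growth loss, again on retest; inactive means the rest.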

Tested on: CEM cells HIV-1 protection, formazan growth assay
Assay: NCI AIDS Antiviral Assay
Settings: for IC50: measured here: growth of uninfected CEM cells
Method in brief: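 Soluble formazan readout of cell growth; CEM cells ± HIV-1; 5 drug concs. ≥50% protection → retest; ≥50% again = moderately active; reproducible 100% = confirmed active.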

Row | SMILES | EC50 [µM] | IC50 | outcome
1 | COC(=O)C1=C(C(=O)OC)C2(C3C(SC)=CC(C)(C)CC3S1)N(Cc1ccccc1)CCN2Cc1ccccc1 (stereo not drawn) | > 9.12 | > 9.12 µM | –
2 | Cc1cc(N)ccc1N=Nc1ccc(S(=O)(=O)CCOS(=O)(=O)O)cc1 | > 2 | 0.912 µM | –
3 | CSCC(COC(C)=O)(CSC)c1ccncc1 | > 871 | 501 µM | –
4 | C[C@]12CC[C@@H]3c4cc(Br)c(O)c(Br)c4CC[C@H]3[C@@H]1CC(Br)C2=O (stereo partly drawn) | > 200 | 3.47 µM | –
5 | COC(=O)C1CC=CCCC1=O (stereo not drawn) | > 776 | 275 µM | –
6 | COC(=O)c1c(C)cccc1/C=C1/Cc2c(C)cccc2C1=O | > 200 | > 200 µM | –
7 | CCOC(=O)c1cn(C)c(=S)n2c1nc1ccccc12 | > 200 | > 200 µM | –
8 | NC1(CSS(=O)(=O)O)CCN1 (stereo not drawn) | > 200 | > 200 µM | –
9 | O=c1cnn2c(n1)OC1C(O)C(CO)OC12 (stereo not drawn) | > 200 | 19.1 µM | –
10 | N#CCC1COc2ccccc2O1 (stereo not drawn) | > 200 | > 200 µM | –
11 | O=C(CSc1nnc(-c2ccc(N=Cc3ccc(Cl)cc3)cc2)o1)Nc1ccc([N+](=O)[O-])cc1 | > 38 | 15.5 µM | –
12 | NC(=O)c1nnc2cc(F)c(F)cc2c1N | > 200 | > 200 µM | –
13 | Oc1cc(O)c2c(c1)O[C@H](c1cc(O)c(O)c(O)c1)[C@@H](O)C2 | > 200 | 0.603 µM | –
14 | Cc1cc([N+](=O)[O-])ccc1Sc1c2ccccc2nc2cc(Cl)ccc12 | > 19.1 | > 19.1 µM | –
15 | CCOC1(NC(=O)N(C)C)C2CCCC21 (stereo not drawn) | > 200 | > 200 µM | –
16 | CCOC(=O)c1sc2nc1CSc1sc(=S)sc1SCc1nc(sc1C(=O)OCC)-c1nc(c(C(=O)OCC)s1)CSc1sc(=S)sc1SCc1nc-2sc1C(=O)OCC | > 200 | > 200 µM | –
17 | CCOP(=O)(OCC)/C(C#N)=C/c1ncc[nH]1 | > 200 | > 200 µM | –
18 | C/C(=N\NC(N)=S)C(CN1CCCCC1)C(C1=C(O)c2ccccc2OC1)c1ccccc1 (stereo not drawn) | > 224 | 123 µM | –
19 | NNC(N)Nc1ccccc1 (stereo not drawn) | > 200 | > 200 µM | –
20 | O=C1Nc2ccccc2/C1=N\[O-].O=C1Nc2ccccc2/C1=N\[O-].[Cu+2] | > 200 | > 200 µM | –
21 | Nc1nc2c(c(=O)[nH]1)NC(CO)CN2 (stereo not drawn) | – | – | inactive
22 | CN(O)C(=S)c1ccccc1 | > 14.8 | 0.112 µM | –
23 | C[C@@H](NC(=O)c1ccccc1SC(=O)NCCCCl)C(N)=O | 3.39 | 49 µM | –
24 | N=S(=O)(c1ccccc1)c1ccccc1[N+](=O)[O-] (stereo not drawn) | 53.7 | 91.2 µM | –

Row | SMILES | EC50 [µM] | IC50 | outcome
25 | c1ccc(-c2nnc(SSSSc3nnc(-c4ccccc4)o3)o2)cc1 | > 200 | 107 µM | –
26 | c1ccc(-c2nc3n(n2)CCC(c2ccccc2)S3)cc1 (stereo not drawn) | 45.7 | > 200 µM | –
27 | O=C1C2C(C(=O)N1c1ccccc1)C1(Br)c3ccccc3C2(Br)C2C(=O)N(c3ccccc3)C(=O)C21 (stereo not drawn) | – | – | inactive
28 | O=C(Nc1ccc(O)cc1)C(Cl)(Cl)Cl | > 200 | 39.8 µM | –
29 | C=CCCN(C=O)CCC/C(=C/CCCC)[Si](C)(C)C | > 24.5 | > 24.5 µM | –
30 | CC1C2=C(C(=O)N1Cc1ccccc1)C(C1OC(COC(=O)c3ccccc3)C(OC(=O)c3ccccc3)C1OC(=O)c1ccccc1)C(=O)N(C)C2=O (stereo not drawn) | > 7.24 | > 7.24 µM | –
31 | O=c1cc(NCC2CCCCC2)[nH]c(=O)[nH]1 | > 200 | > 200 µM | –
32 | Cc1cccc(C(C)(C)C)c1NC(=O)C(C#N)C1=C(Cl)C(=O)c2ccccc2C1=O (stereo not drawn) | > 107 | 22.9 µM | –
33 | CC1=C[P+](Cc2ccccc2)(c2ccccc2)CC1 (stereo not drawn) | – | 186 µM and 72.4 µM | –
34 | CC1=C(c2cc(C(=O)Nc3ccc(Cl)c(Cl)c3)nc(N)n2)Sc2ccccc2N1 | > 81.3 | > 81.3 µM | –
35 | CO/C(=N\N=Cc1ccccc1)c1ccncc1 | 15.1 | 166 µM | –
36 | NC(=S)NN=C1CSSC1 | > 200 | 11.7 µM | –
37 | COC1C2C=CC(C2)[C@H]1[N+](=O)[O-] (stereo partly drawn) | – | – | inactive
38 | COc1cccc(NC(=S)/C(=C(/[O-])c2ccc(C)cc2)[n+]2ccccc2)c1 | > 200 | > 200 µM | –
39 | Cn1ncc(NCCn2cnc3c2c(=O)n(C)c(=O)n3C)c(Cl)c1=O | > 200 | > 200 µM | –
40 | O=[N+]([O-])c1ccc(S(=O)(=O)NCCSSCCNS(=O)(=O)c2ccc([N+](=O)[O-])cc2)cc1 | > 200 | 10.5 µM | –
41 | CCOP(=O)(CC(C)P(=O)(OCC)OCC)OCC.C[CH2][Sn]([Cl])([Cl])[CH2]C (stereo not drawn) | > 447 | 1.7 µM | –
42 | COc1cc(C(O)(CC#N)c2cc3c(cc2Br)OCO3)cc(OC)c1OC (stereo not drawn) | > 200 | 10 µM | –
43 | CCCCCCCCCCCCCCCCC(c1ccc(O)c(C(=O)O)c1)c1ccc(O)c(C(=O)O)c1 | > 229 | 91.2 µM | –
44 | CCN1C(NN)=NS(=O)(=O)c2ccccc21 | > 200 | > 200 µM | –
45 | CC1(C)OCC2OC3OC(C)(C)OC3C(OS(C)(=O)=O)C2O1 (stereo not drawn) | > 200 | > 200 µM | –
46 | CCOc1ccc(NC2OC(CO)C(O)C(O)C2NC(C)=O)cc1 (stereo not drawn) | > 200 | > 200 µM | –
47 | CC1=C/C(=C(\c2cc(C)c(O)c(C(=O)O)c2)c2c(Cl)cccc2Cl)C=C(C(=O)O)C1=O | – | – | inactive
48 | O=C(OCC(O)CO)c1c(Cl)c(Cl)c(Cl)c(Cl)c1-c1c2cc(I)c(=O)c(I)c-2oc2c(I)c(O)c(I)cc12 (stereo not drawn) | > 200 | 2.63 µM | –

Row | SMILES | EC50 [µM] | IC50 | outcome
49 | C=CCC(CC(CC=C)C(=O)O)C(=O)O (stereo not drawn) | > 1170 | > 1170 µM | –
50 | [Cl][Bi]([Cl])([c]1ccccc1)([c]1ccccc1)[c]1ccccc1 | > 19.5 | 3.39 µM | –
51 | O=C1/C(=C/c2cccc(Cl)c2)CCCc2ccccc21 | > 200 | 11.7 µM | –
52 | Oc1ccccc1C=Nc1ccccc1N=Cc1ccccc1O | > 4.57 | > 4.57 µM | –
53 | CCOC(=O)C1(C#N)C(=O)c2cc[n+](CC[n+]3ccc4c(c3)C(=O)C(C#N)(C(=O)OCC)C4=O)cc2C1=O (stereo not drawn) | > 200 | 107 µM | –
54 | CC(=O)OCCOCN1C(=O)CC(=O)NC1=O | > 200 | > 200 µM | –
55 | Cc1ccnc(NC(=O)Nc2ccc(C)cc2[N+](=O)[O-])c1 | > 200 | > 200 µM | –
56 | CC(C)(NC1=NCCO1)c1ccccc1 | > 200 | > 200 µM | –
57 | O=C1CCC(=O)N1Sc1ccccc1 | – | – | inactive
58 | N#Cc1c(N)nc2c(c(-c3ccc(Cl)cc3)nn2-c2ccccc2)c1C#N | > 200 | > 200 µM | –
59 | COc1ccccc1/C=C1\N=C(C)OC1=O | – | – | inactive
60 | CSc1ccc(OCC2OC2O)cc1 (stereo not drawn) | > 24.5 | > 24.5 µM | –
61 | CN(C)CCN(C)CC(O)CO (stereo not drawn) | – | – | inactive
62 | CC1CCCCNC1=S (stereo not drawn) | > 200 | > 200 µM | –
63 | CN(C)CCC(=O)c1ccc(Cl)cc1 | > 107 | 27.5 µM | –
64 | CCOC(=O)CC(C)C1(C(=O)OCC)CCCCC1=O (stereo not drawn) | > 331 | > 331 µM | –
65 | N#C/C(=C/NC(=S)N=Nc1c(O)[nH]c2ccccc12)C(N)=O | > 200 | 195 µM | –
66 | O=C(O)/C(=C(/c1ccccc1)c1ccc(Cl)cc1)c1ccccc1 | > 107 | 89.1 µM | –
67 | O=C(Nc1nc2ccc(Cl)cc2[nH]1)c1ccccc1O | > 200 | 12 µM | –
68 | CN(C)C(C(N)=O)c1ccc(Cl)cc1 (stereo not drawn) | – | – | inactive
69 | CN(C)c1nc2ccccc2[nH]1 | – | – | inactive
70 | CC1=CC(C)(C)SC(SSSSC2=NC(C)=CC(C)(C)S2)=N1 | > 200 | 29.5 µM | –
71 | CC(C)(C)C1=C(Br)C(OC(=O)C(F)(F)F)(C(C)(C)C)OP1(=O)c1ccccc1 (stereo not drawn) | > 200 | 74.1 µM | –
72 | CC1(C)CNC[C@](C)(OCCCO[C@@]2(C)CNCC(C)(C)NC2=O)C(=O)N1 | > 200 | > 200 µM | –

Row | SMILES | EC50 [µM] | IC50 | outcome
73 | CNC(=O)c1[nH]cnc1/N=N/N(C)N | > 200 | 182 µM | –
74 | COc1ccc(NCC(=O)Nn2c(-c3ccccc3)nc3ccccc3c2=O)cc1 | > 200 | 17.8 µM | –
75 | CCOC(=O)/C(=C\c1ccc(C)o1)P(=O)(OCC)OCC | > 794 | > 100 µM | –
76 | [Pd+2].[S-]c1ncccn1.[S-]c1ncccn1 | > 200 | 0.107 µM | –
77 | CC1C(=O)CC[C@@]2(C)C(=O)CCCC12O (stereo partly drawn) | – | – | inactive
78 | CC(=O)NNc1nc(C)c(C(=O)NNC(=O)C(=O)Nc2ccc(Cl)cc2)s1 | – | – | inactive
79 | CCOc1ccc(N2CC(=O)N3CCCN3C(=O)C2)cc1 | > 123 | > 123 µM | –
80 | C=C(C)[C@H]1CC[C@@]2(C)C(C1)[C@H](C)CC[C@@H]2O (stereo partly drawn) | – | – | inactive
81 | CCOC(=O)CCC(NC(=O)C(N)c1ccc([N+](=O)[O-])cc1)C(=O)NC(CCC(=O)OCC)C(=O)OCC (stereo not drawn) | > 200 | > 200 µM | –
82 | COc1ccc(S(=O)(=O)O)cc1-n1nc(C(=O)Nc2ccccc2)n[n+]1-c1cc(S(=O)(=O)[O-])ccc1OC | > 200 | > 200 µM | –
83 | Brc1ccc(OCc2ccccc2)c2ccccc12 | > 200 | 63.1 µM | –
84 | CC1Cn2c(=S)[nH]c3cccc(c32)NC1=O (stereo not drawn) | > 200 | > 200 µM | –
85 | COC(=O)C(=O)C(C(=O)C(=O)Nc1cc(C)ccc1C)c1nc2ccccc2[nH]c1=O (stereo not drawn) | > 589 | 275 µM | –
86 | CCN(CC)CCOC(=O)c1cc2ccccc2n1-c1ccccc1 | > 200 | 79.4 µM | –
87 | COC(=O)C1Cc2c([nH]c3ccccc23)-c2[nH]c3ccccc3c2CC(NC(C)=O)C(=O)NCC(=O)NCC(=O)N1 (stereo not drawn) | > 200 | > 200 µM | –
88 | O=C(c1ccccc1)N1N=C(C(F)(F)F)CC1(O)C(F)(F)F (stereo not drawn) | > 200 | > 200 µM | –
89 | O=C1c2ccccc2C(=O)N1/N=C\c1ccc(O)cc1 | > 135 | > 135 µM | –
90 | CN1C(c2ccccc2)(c2ccccc2)c2ccccc2S1(=O)=O | > 200 | 50.1 µM | –
91 | CN(C)c1ccc(/C=C2\C=Cc3ccccc32)c(F)c1 | > 14.1 | > 14.1 µM | –
92 | CC(C)(C)C(=CS(=O)/N=C/c1ccccc1)C(C)(C)C (stereo not drawn) | > 24.5 | > 24.5 µM | –
93 | CCCCCCCCCC=C(c1cc(Cl)c(OC)c(C(=O)OC)c1)c1cc(Cl)c(OC)c(C(=O)OC)c1 | > 23.4 | > 23.4 µM | –
